Experimental data as given in the supplement of paper PMC13380429.

How the values were obtained:
Settings in all cases: 72 h
Caco-2 [1] = test: cell viability relative to DMSO; higher = less toxic
Calu-3 [2] = test: as above
HepG2 [3] = test: as above
U2OS [4] = test: as above
Vero E6 [5] = test: as above
Caco-2 [6] = test: relative viability EC50 (midpoint between 100% and the lowest measured viability); higher = less toxic
Calu-3 [7] = test: as above
HepG2 [8] = test: as above
U2OS [9] = test: as above
Vero E6 [10] = test: as above
Caco-2 [11] = test: drug sensitivity score (DSS) for viability; higher = more toxic; extreme values may be limits of the assay
Calu-3 [12] = test: as above
HepG2 [13] = test: as above
U2OS [14] = test: as above
Vero E6 [15] = test: as above

Row | SMILES | cell viability (Caco-2 [1]; 1 nM) [%] | cell viability (Caco-2 [1]; 10 nM) [%] | cell viability (Caco-2 [1]; 100 nM) [%] | cell viability (Caco-2 [1]; 1000 nM) [%] | cell viability (Caco-2 [1]; 10000 nM) [%] | cell viability (Calu-3 [2]; 1 nM) [%] | cell viability (Calu-3 [2]; 10 nM) [%] | cell viability (Calu-3 [2]; 100 nM) [%] | cell viability (Calu-3 [2]; 1000 nM) [%] | cell viability (Calu-3 [2]; 10000 nM) [%] | cell viability (HepG2 [3]; 1 nM) [%] | cell viability (HepG2 [3]; 10 nM) [%] | cell viability (HepG2 [3]; 100 nM) [%] | cell viability (HepG2 [3]; 1000 nM) [%] | cell viability (HepG2 [3]; 10000 nM) [%] | cell viability (U2OS [4]; 1 nM) [%] | cell viability (U2OS [4]; 10 nM) [%] | cell viability (U2OS [4]; 100 nM) [%] | cell viability (U2OS [4]; 1000 nM) [%] | cell viability (U2OS [4]; 10000 nM) [%] | cell viability (Vero E6 [5]; 1 nM) [%] | cell viability (Vero E6 [5]; 10 nM) [%] | cell viability (Vero E6 [5]; 100 nM) [%] | cell viability (Vero E6 [5]; 1000 nM) [%] | cell viability (Vero E6 [5]; 10000 nM) [%] | relative viability EC50 (Caco-2 [6]) [µM] | relative viability EC50 (Calu-3 [7]) [µM] | relative viability EC50 (HepG2 [8]) [µM] | relative viability EC50 (U2OS [9]) [µM] | relative viability EC50 (Vero E6 [10]) [µM] | drug sensitivity score (Caco-2 [11]) | drug sensitivity score (Calu-3 [12]) | drug sensitivity score (HepG2 [13]) | drug sensitivity score (U2OS [14]) | drug sensitivity score (Vero E6 [15])
1 | CCc1nn(CCO)c(CC)c1Oc1cc(C#N)cc(C#N)c1 [lersivirine] | 109 | 95.8 | 97.9 | 98.8 | 105 | 102 | 99.4 | 107 | 114 | 104 | 92.1 | 110 | 94.7 | 95.9 | 105 | 100 | 97.6 | 95.7 | 102 | 102 | 96.8 | 95.6 | 97.5 | 90.8 | 100 | > 10 | > 10 | > 10 | > 10 | > 10 | 0 | 0 | 0 | 0 | 0
2 | Nc1ncnc2c1ncn2[C@@H]1O[C@H](CO)C[C@H]1O [cordycepin] | 93.9 | 99 | 95.2 | 97.5 | 103 | 94.6 | 98.6 | 86.1 | 92.5 | 101 | 95.3 | 98.9 | 104 | 97.4 | 114 | 95.7 | 99.3 | 95 | 105 | 110 | 96.6 | 97 | 96.2 | 98.1 | 103 | > 10 | > 10 | > 10 | > 10 | > 10 | 0 | 0 | 0 | 0 | 0
3 | CCC(COC(=O)c1cc(OC)c(OC)c(OC)c1)(c1ccccc1)N(C)C (stereo not given) [trimebutine] | 94.5 | 93.1 | 95.4 | 91.3 | 88.4 | 97.5 | 104 | 100 | 95.6 | 100 | 99.8 | 104 | 103 | 96.7 | 96.9 | 94.8 | 101 | 102 | 97.2 | 92.6 | 98.2 | 102 | 98.4 | 100 | 98.2 | > 10 | > 10 | > 10 | > 10 | > 10 | 0 | 0 | 0 | 0 | 0
4 | Cc1ncc(C[n+]2csc(CCOP(=O)(O)OP(=O)(O)O)c2C)c(N)n1 [thiamine-pyrophosphate] | 95.4 | 88.1 | 106 | 95.5 | 104 | 98.5 | 98 | 104 | 94 | 103 | 95.7 | 112 | 97.4 | 110 | 134 | 95.7 | 95.1 | 104 | 95.9 | 98.2 | 91.8 | 101 | 92.6 | 96.1 | 110 | > 10 | > 10 | > 10 | > 10 | > 10 | 0 | 0 | 0 | 0 | 0
5 | Cc1nc2ccc(NC(=O)Nc3ccnc4cccnc34)cc2o1 | 94.9 | 92.2 | 98 | 89.6 | 76.1 | 102 | 103 | 94.5 | 92.7 | 90.3 | 98.9 | 102 | 94.7 | 92.8 | 80.7 | 101 | 93 | 99.3 | 96.4 | 96.4 | 97.6 | 98.8 | 90.9 | 102 | 93.2 | > 10 | > 10 | > 10 | > 10 | > 10 | 1.6 | 0 | 0.8 | 0 | 0
6 | OC(c1ccccc1)(c1ccccc1)C12CC[N+](CCOCc3ccccc3)(CC1)CC2 [umeclidinium] | 105 | 97.1 | 94.1 | 104 | 97.8 | 95.1 | 102 | 107 | 101 | 92.8 | 96.6 | 99.5 | 101 | 97.1 | 106 | 95.8 | 99.2 | 98.7 | 99 | 99.9 | 97 | 96.1 | 92.9 | 96.2 | 101 | > 10 | > 10 | > 10 | > 10 | > 10 | 0 | 0 | 0 | 0 | 0
7 | CC(C)c1ccc2c(c1)CC[C@H]1[C@](C)(CN)CCC[C@]21C [lylamine] | 109 | 103 | 106 | 98.4 | 16.7 | 96 | 98 | 97.8 | 104 | 1.4 | 104 | 109 | 92.3 | 110 | 0 | 103 | 98.5 | 103 | 97.1 | 19.4 | 108 | 108 | 105 | 97.8 | 3.1 | 3.03 | 3.37 | 3.64 | 2.9 | 3.01 | 4.8 | 5.2 | 4.9 | 4.9 | 5.7
8 | CNCCCN1c2ccccc2CCc2ccccc21 [desipramine] | 98.9 | 111 | 102 | 94.3 | 90.6 | 104 | 101 | 104 | 109 | 96.2 | 119 | 114 | 105 | 113 | 89 | 104 | 102 | 104 | 98.1 | 97.1 | 107 | 103 | 97 | 102 | 99.9 | > 10 | > 10 | > 10 | > 10 | > 10 | 0 | 0 | 0 | 0 | 0
9 | CCCCCCCC/C=C\CCCCCCCC(=O)N[C@@H](CO)Cc1ccc(O)cc1 [OMDM-2] | 87.1 | 94.4 | 97.1 | 91.8 | 102 | 106 | 102 | 99.5 | 96.7 | 97.3 | 100 | 93.3 | 114 | 106 | 99.6 | 96.8 | 101 | 96.7 | 100 | 99.7 | 92.4 | 92 | 97.4 | 93.7 | 109 | > 10 | > 10 | > 10 | > 10 | > 10 | 0 | 0 | 0 | 0 | 0
10 | CC(C)c1nc(CN(C)C(=O)N[C@H](C(=O)N[C@@H](Cc2ccccc2)C[C@H](O)[C@H](Cc2ccccc2)NC(=O)OCc2cncs2)C(C)C)cs1 [ritonavir] | 97.8 | 94.3 | 96.3 | 100 | 77.5 | 102 | 87 | 93.7 | 102 | 98.6 | 98.6 | 104 | 94 | 107 | 110 | 105 | 97.5 | 98 | 94.5 | 95.4 | 94.4 | 97.5 | 89.4 | 102 | 108 | > 10 | > 10 | > 10 | > 10 | > 10 | 0.8 | 0 | 0 | 0 | 0
11 | C[C@]12CC[C@H]3[C@@H](CCC4=CC(=O)CC[C@@]43C)[C@@H]1CC[C@@H]2C(=O)CO [desoxycortone] | 100 | 101 | 102 | 97 | 87.4 | 98.5 | 95.1 | 91.5 | 105 | 95.8 | 101 | 95.8 | 97 | 87.1 | 104 | 103 | 99.2 | 97.1 | 97.6 | 95.4 | 101 | 99.2 | 93.6 | 95.8 | 101 | > 10 | > 10 | > 10 | > 10 | > 10 | 0.2 | 0 | 0 | 0 | 0
12 | CC(C)(C)NC[C@H](O)COc1nsnc1N1CCOCC1 [timolol] | 98.1 | 102 | 97 | 96.9 | 113 | 99.8 | 94.5 | 101 | 100 | 98.1 | 94.9 | 90 | 97.1 | 96.5 | 94.5 | 96.6 | 102 | 94.4 | 95.3 | 96.9 | 94.5 | 96.9 | 106 | 99.3 | 104 | > 10 | > 10 | > 10 | > 10 | > 10 | 0 | 0 | 0 | 0 | 0
13 | C1=N/C2=N/c3ccc(OCCN4CCCC4)c(c3)COC/C=C/COCc3cccc(c3)C(=C1)N2 [pacritinib] | 88.9 | 95.2 | 94.6 | 87.7 | 26 | 104 | 96.5 | 95.6 | 102 | 27.8 | 94.2 | 102 | 89.4 | 92.1 | 0.8 | 90.3 | 91.6 | 101 | 89.7 | 1.5 | 96.3 | 94.9 | 94.7 | 94.7 | 7.2 | 1.9 | 3.34 | 2.51 | 2.3 | 2.71 | 6.1 | 3.8 | 6.7 | 7.1 | 5.9
14 | CO/N=C(\C(=O)N[C@@H]1C(=O)N2C(C(=O)[O-])=C(C[n+]3ccn4ncccc43)CS[C@H]12)c1nsc(N)n1 [cefozopran] | 93.7 | 97.9 | 96.5 | 96.7 | 99 | 102 | 104 | 93.6 | 104 | 118 | 89.7 | 90 | 88.8 | 104 | 102 | 97 | 97.7 | 102 | 107 | 104 | 92.7 | 99.9 | 94 | 98.7 | 109 | > 10 | > 10 | > 10 | > 10 | > 10 | 0 | 0 | 0 | 0 | 0
